According to EP2112152A1, “Dihydropteridinones as Plk Inhibitors” (GPC Biotech AG, priority 2008, dated 2009):

Legend:
Assay type in all cases: cell-based
[1] = system: HCT 116; experiment: SRB cell proliferation assay, HCT 116; settings: Homo sapiens, HCT-116, 72 h, 72 hours, SRB assay; read-out: CELLULAR IC50 HCT 116
Experimental: (§1) We observed the surprising finding that compounds of the invention were useful in inhibiting proliferation of tumor cell lines (see Table 3).
(§2) Cells were exposed to the test compounds at various concentrations appropriate to determine an IC50 for 72 hours. Cell proliferation was measured using the SRB assay according to Shekan et al (J Natl Cancer Inst (1990) 82, 1107-112) in order to estimate the IC50 values shown in Table 3. Briefly, cells were plated in 96 well dishes 24 hours prior to compound addition at the densities specified in Table 5.1. The assay was terminated with the addition of cold TCA to a final concentration of 10% after growth medium has been removed and the plates were incubated over night at 4°C. The plates were then washed 5 times with water and 100µl of a Sulforhodamine B solution (4%) was added to each well. The plates were then incubated for 10 minutes at room temperature before removal of unbound dye by washing with 1% acetic acid. The bound dye was solubilised with 10 mM Trizma base and the absorbance read at OD520.
(§3) Inhibitory activity of the compounds (IC) was calculated as % inhibition of cell proliferation compared to cells treated with the solvent (DMSO).
(§4) Table 8.1: 18-Cell Line Panel

[2] = system: HT-29; experiment: SRB cell proliferation assay, HT-29; settings: Homo sapiens, HT-29, 72 h, 72 hours, SRB assay; read-out: CELLULAR IC50 HT-29
Experimental: as §1, §2, §3, §4

[3] = system: IMR-90; experiment: SRB cell proliferation assay, IMR-90; settings: Homo sapiens, 72 hours, SRB assay, slow cycling cell line, read-out: CELLULAR IC50 IMR-90
Experimental: as §1, §2, §3, §4

[4] = target: Plk1 (Homo sapiens, UniProt P53350); experiment: Cellular Plk1 kinase activity: nucleophosmin (B23) Ser4 phosphorylation in HCT116 cells (MSD electrochemiluminescence); design: host or cells: HCT116; settings: 100 ng/ml nocodazole, 4 hours after compound addition, read-out: Biochemical IC50 Nucleophosmin assay
Experimental: We observed the surprising finding that compounds of the invention were able to penetrate cell membranes and retained their activity as Plk1 inhibitors against native Plk1 expressed within living cancer cells.
Cellular Plk1 kinase activity was measured by quantification of nucleophosmin (B23) Ser4 phosphorylation in a cancer cell line. Nucleophosmin (B23) Ser4 is phosphorylated by Plk1, and this phosphorylation can be specifically detected by cross-reactivity of a phospho-Mek1/2 antibody that is able to recognizes a mitotic-specific phosphorylated form of nucleophosmin (B23) in a nocodazole dependent way (Zhang, H., Shi, X., Paddon, H., Hampong, M., Dai, W., and Pelech, S. (2004) B23/Nuleophosmin Serin 4 Phosphorylation Mediates Mitotic Functions of Polo-like Kinase 1. J. Biol. Chem., 279(34), 35726-35734).
Briefly, HCT116 cells (ATCC, Order No. CCL-247) were plated in 96 well dishes 24 hours prior to nocodazole treatment at 25 000 cells per well. Cells were then treated with 100 ng/ml nocodazole (Sigma-Aldrich, # M1404). 20 hours after nocodazole treatment, cells were exposed to the test compounds at various concentrations appropriate to determine an IC50. 4 hours after compound addition, medium was carefully removed and 120 µl of Complete Tris Lysis Buffer (R60TX; MSD, Gaithersburg MD) was added to each well. Samples were then stored at -20°C.
The level of nucleophosmin (B23) Ser4 phosphorylation in these cell lysis samples was estimated by electrochemiluminescence detection using the Meso Scale Discovery ("MSD") Technology Platform (MSD, Gaithersburg MD). The protocol used was as recommended by the manufacturer with the use of a phospho-Mek1/2 antibody (Cell Signalling, #9121) as primary antibody, and is as follows.
The cell lysates were thawed at room temperature and 40 µl were incubated on 96-well MULTI-ARRAY High Bind plates (L11XB; MSD) for 1.5 - 2 hours at room temperature. The supernatants were then removed and 150 µl of a 5% (w/v) solution of Blocker A (R93AA; MSD) in Tris Wash Buffer (R61TX; MSD) were added to each well. The plates were then incubated for 1 hour at room temperature before removal of the Blocker A solution and washed 4 times with 200 µl Tris Wash Buffer. 25 µl primary antibody (anti-phospho-MEK1/2, Cell Signalling, #9121, rabbit polyclonal), diluted 1:250 in a 1% (w/v) solution of Blocker A in Tris Wash Buffer, were added to each well. The plates were then incubated for 1 hour at room temperature before removal of the antibody solution and washed 4 times with 200 µl Tris Wash Buffer. Then, 25 µl of labelled secondary antibody (SULFO-TAG Goat Anti-Rabbit IgGAntibody (R32AB; MSD), diluted 1:500 in a 1% (w/v) solution of Blocker A in Tris Wash Buffer) were added to each well. The plates were then incubated for 1 hour at room temperature before removal of the antibody solution and washed 4 times with 200 µl Tris Wash Buffer. Then, […] of 1x Read Buffer T (R92TC; MSD) were carefully added to each well and the plates were quantitatively detected for each well with a SECTOR™ Imager 6000 (MSD).
Inhibitory activity of the compounds (IC) was calculated as % inhibition of nucleophosmin (B23) Ser4 phosphorylation compared to cells not treated with nocodazole.

Chain of Plk1 (P53350 whole entry, species assumed): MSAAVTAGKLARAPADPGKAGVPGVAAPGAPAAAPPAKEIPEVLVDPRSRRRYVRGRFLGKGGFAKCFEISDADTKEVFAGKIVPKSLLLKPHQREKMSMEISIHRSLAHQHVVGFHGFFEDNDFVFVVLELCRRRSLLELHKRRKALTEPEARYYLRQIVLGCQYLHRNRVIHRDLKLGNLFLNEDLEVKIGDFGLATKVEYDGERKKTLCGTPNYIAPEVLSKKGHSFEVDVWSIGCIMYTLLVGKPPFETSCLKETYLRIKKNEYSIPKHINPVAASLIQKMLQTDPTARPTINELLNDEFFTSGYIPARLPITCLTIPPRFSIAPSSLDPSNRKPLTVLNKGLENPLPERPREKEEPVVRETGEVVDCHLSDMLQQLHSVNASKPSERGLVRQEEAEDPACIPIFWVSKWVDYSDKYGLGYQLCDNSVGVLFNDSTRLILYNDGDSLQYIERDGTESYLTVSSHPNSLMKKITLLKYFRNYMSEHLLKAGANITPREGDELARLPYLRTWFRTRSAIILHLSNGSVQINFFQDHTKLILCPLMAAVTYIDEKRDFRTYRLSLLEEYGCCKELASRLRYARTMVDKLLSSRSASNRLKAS

Structure (SMILES)	IC50 [1]	IC50 [2]	IC50 [3]	IC50 [4]
CCC1C(=O)N(C)c2cnc(Nc3ccc(C(=O)NC4CCN(C)CC4)cc3OC)nc2N1NC (centres unmarked) [Compound 30, 4-(7-Ethyl-5-methyl-8-methylamino-6-oxo-5,6,7,8-tetrahydro-pteridin-2-ylamino)-3-methoxy-N-(1-methyl-piperidin-4-yl)-benzamide]	< 1000 nM	< 1000 nM	> 1000 nM	< 100 nM
CCC1C(=O)N(C)c2cnc(Nc3ccc(C(=O)N[C@H]4CC[C@H](N5CCN(CC6CC6)CC5)CC4)cc3OC)nc2N1N(C)CC(C)C (relative stereo) [Compound 24, N-[trans-4-(4-Cyclopropylmethyl-piperazin-1-yl)-cyclohexyl]-4-[7-ethyl-8-(isobutyl-methyl-amino)-5-methyl-6-oxo-5,6,7,8-tetrahydro-pteridin-2-ylamino]-3-methoxy-benzamide]	< 1000 nM	< 1000 nM	> 1000 nM	< 100 nM
CCC1C(=O)N(C)c2cnc(Nc3ccc(C(=O)NCC4CCN(CC)CC4)cc3OC)nc2N1N(C)C (centres unmarked) [Compound 3, 4-(8-Dimethylamino-7-ethyl-5-methyl-6-oxo-5,6,7,8-tetrahydro-pteridin-2-ylamino)-N-(1-ethyl-piperidin-4-ylmethyl)-3-methoxy-benzamide]	< 1000 nM	< 1000 nM	> 1000 nM	< 100 nM
CCC1C(=O)N(C)c2cnc(Nc3ccc(C(=O)N[C@H]4CC[C@H](N5CCN(CC6CC6)CC5)CC4)cc3OC)nc2N1N(C)CC1CCCC1 (relative stereo) [Compound 28, 4-[8-(Cyclopentylmethyl-methyl-amino)-7-ethyl-5-methyl-6-oxo-5,6,7,8-tetrahydro-pteridin-2-ylamino]-N-[trans-4-(4-cyclopropylmethyl-piperazin-1-yl)-cyclohexyl]-3-methoxy-benzamide]	< 1000 nM	< 1000 nM	> 1000 nM	< 100 nM
CCC1C(=O)N(C)c2cnc(Nc3ccc(C(=O)NCC4CCN(CC)CC4)cc3OC)nc2N1NC (centres unmarked) [Compound 32, 4-(7-Ethyl-5-methyl-8-methylamino-6-oxo-5,6,7,8-tetrahydro-pteridin-2-ylamino)-N-(1-ethyl-piperidin-4-ylmethyl)-3-methoxy-benzamide]	< 1000 nM	< 1000 nM	> 1000 nM	< 500 nM
CCC1C(=O)N(C)c2cnc(Nc3ccc(C(=O)NCC4CCN(CC)CC4)cc3OC)nc2N1N(C)CC1CCC1 (centres unmarked) [Compound 34, 4-[8-(Cyclobutylmethyl-methyl-amino)-7-ethyl-5-methyl-6-oxo-5,6,7,8-tetrahydro-pteridin-2-ylamino]-N-(1-ethyl-piperidin-4-ylmethyl)-3-methoxy-benzamide]	< 1000 nM	< 1000 nM	> 1000 nM	< 500 nM
CCC1C(=O)N(C)c2cnc(Nc3ccc(C(=O)NCC4CCN(Cc5ccccc5)CC4)cc3OC)nc2N1N(C)C (centres unmarked) [Compound 12, N-(1-Benzyl-piperidin-4-ylmethyl)-4-(8-dimethylamino-7-ethyl-5-methyl-6-oxo-5,6,7,8-tetrahydro-pteridin-2-ylamino)-3-methoxy-benzamide]	< 1000 nM	< 1000 nM	> 1000 nM	< 100 nM
CCC1C(=O)N(C)c2cnc(Nc3ccc(C(=O)N[C@H]4CC[C@H](N5CCN(CC6CC6)CC5)CC4)cc3OC)nc2N1N(C)CC1CC1 (relative stereo) [Compound 18, 4-[8-(Cyclopropylmethyl-methyl-amino)-7-ethyl-5-methyl-6-oxo-5,6,7,8-tetrahydro-pteridin-2-ylamino]-N-[trans-4-(4-cyclopropylmethyl-piperazin-1-yl)-cyclohexyl]-3-methoxy-benzamide]	< 1000 nM	< 1000 nM	> 1000 nM	< 500 nM
